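Grown in 96-well plates, cells were treated for 48 hours with each compound at five concentrations. Insufficient inhibition: endpoint recorded as highest concentration tested. GI50: concentration for 50% inhibition of growth. TGI is the concentration that stops growth completely.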
What was measured:
Experiment in all cases: NCI anticancer screen, dose series, 48 h
786-0 renal = system: 786-0 renal
A498 renal = system: A498 renal
A549 NSCLC = system: A549 NSCLC
BT-549 breast = system: BT-549 breast
CAKI-1 renal = system: CAKI-1 renal
CCRF-CEM leukemia = system: CCRF-CEM leukemia
COLO 205 colon = system: COLO 205 colon
DU-145 prostate = system: DU-145 prostate
EKVX NSCLC = system: EKVX NSCLC
HCC-2998 colon = system: HCC-2998 colon
HCT-116 colon = system: HCT-116 colon
HCT-15 colon = system: HCT-15 colon
HL-60(TB) leukemia = system: HL-60(TB) leukemia
HOP-62 NSCLC = system: HOP-62 NSCLC
HOP-92 NSCLC = system: HOP-92 NSCLC
HS 578T breast = system: HS 578T breast
HT29 colon = system: HT29 colon
IGROV1 ovarian = system: IGROV1 ovarian
K-562 leukemia = system: K-562 leukemia
KM12 colon = system: KM12 colon
LOX IMVI melanoma = system: LOX IMVI melanoma
M14 melanoma = system: M14 melanoma
MALME-3M melanoma = system: MALME-3M melanoma
MCF7 breast = system: MCF7 breast
MDA-MB-435 = system: MDA-MB-435
MOLT-4 leukemia = system: MOLT-4 leukemia
NCI-H226 lung = system: NCI-H226 lung
NCI-H23 lung = system: NCI-H23 lung
NCI-H460 lung = system: NCI-H460 lung
NCI-H522 lung = system: NCI-H522 lung
NCI/ADR-RES ovarian = system: NCI/ADR-RES ovarian
OVCAR-3 ovarian = system: OVCAR-3 ovarian
OVCAR-4 ovarian = system: OVCAR-4 ovarian
OVCAR-8 ovarian = system: OVCAR-8 ovarian
PC-3 prostate = system: PC-3 prostate
RPMI-8226 leukemia = system: RPMI-8226 leukemia
RXF 393 renal = system: RXF 393 renal
SF-268 CNS = system: SF-268 CNS
SF-295 CNS = system: SF-295 CNS
SF-539 CNS = system: SF-539 CNS
SK-MEL-2 melanoma = system: SK-MEL-2 melanoma
SK-MEL-28 melanoma = system: SK-MEL-28 melanoma
SK-MEL-5 melanoma = system: SK-MEL-5 melanoma
SK-OV-3 ovarian = system: SK-OV-3 ovarian
SN12C renal = system: SN12C renal
SNB-19 CNS = system: SNB-19 CNS
SR leukemia = system: SR leukemia
T-47D breast = system: T-47D breast
TK-10 renal = system: TK-10 renal
U251 CNS = system: U251 CNS
UACC-257 melanoma = system: UACC-257 melanoma
UACC-62 melanoma = system: UACC-62 melanoma
UO-31 renal = system: UO-31 renal
SNB-75 CNS = system: SNB-75 CNS

Structure (SMILES): CCCNc1nc2ccccc2c2c1S(=O)(=O)c1ccc(Cl)cc1C2=O
- GI50 (786-0 renal): 1700 nM
- TGI (786-0 renal): > 50 µM
- GI50 (A498 renal): 1510 nM
- TGI (A498 renal): 16.8 µM
- GI50 (A549 NSCLC): 1990 nM
- TGI (A549 NSCLC): > 50 µM
- GI50 (BT-549 breast): 734 nM
- TGI (BT-549 breast): > 50 µM
- GI50 (CAKI-1 renal): 1460 nM
- TGI (CAKI-1 renal): > 50 µM
- GI50 (CCRF-CEM leukemia): 400 nM
- TGI (CCRF-CEM leukemia): 3.98 µM
- GI50 (COLO 205 colon): 2100 nM
- TGI (COLO 205 colon): > 50 µM
- GI50 (DU-145 prostate): 1570 nM
- TGI (DU-145 prostate): > 50 µM
- GI50 (EKVX NSCLC): 1380 nM
- TGI (EKVX NSCLC): > 50 µM
- GI50 (HCC-2998 colon): 1620 nM
- TGI (HCC-2998 colon): 34.4 µM
- GI50 (HCT-116 colon): 425 nM
- TGI (HCT-116 colon): > 50 µM
- GI50 (HCT-15 colon): 728 nM
- TGI (HCT-15 colon): > 50 µM
- GI50 (HL-60(TB) leukemia): 1490 nM
- TGI (HL-60(TB) leukemia): > 50 µM
- GI50 (HOP-62 NSCLC): 1770 nM
- TGI (HOP-62 NSCLC): > 50 µM
- GI50 (HOP-92 NSCLC): 89.9 nM
- TGI (HOP-92 NSCLC): 475 nM
- GI50 (HS 578T breast): 1210 nM
- TGI (HS 578T breast): > 50 µM
- GI50 (HT29 colon): 1650 nM
- TGI (HT29 colon): > 50 µM
- GI50 (IGROV1 ovarian): 1460 nM
- TGI (IGROV1 ovarian): > 50 µM
- GI50 (K-562 leukemia): 450 nM
- TGI (K-562 leukemia): > 50 µM
- GI50 (KM12 colon): 1490 nM
- TGI (KM12 colon): > 50 µM
- GI50 (LOX IMVI melanoma): 1280 nM
- TGI (LOX IMVI melanoma): > 50 µM
- GI50 (M14 melanoma): 625 nM
- TGI (M14 melanoma): > 50 µM
- GI50 (MALME-3M melanoma): 1460 nM
- TGI (MALME-3M melanoma): > 50 µM
- GI50 (MCF7 breast): 1090 nM
- TGI (MCF7 breast): > 50 µM
- GI50 (MDA-MB-435): 1110 nM
- TGI (MDA-MB-435): > 50 µM
- GI50 (MOLT-4 leukemia): 1540 nM
- TGI (MOLT-4 leukemia): > 50 µM
- GI50 (NCI-H226 lung): 1510 nM
- TGI (NCI-H226 lung): > 50 µM
- GI50 (NCI-H23 lung): 1660 nM
- TGI (NCI-H23 lung): > 50 µM
- GI50 (NCI-H460 lung): 1300 nM
- TGI (NCI-H460 lung): 4.47 µM
- GI50 (NCI-H522 lung): 1170 nM
- TGI (NCI-H522 lung): > 50 µM
- GI50 (NCI/ADR-RES ovarian): 1370 nM
- TGI (NCI/ADR-RES ovarian): > 50 µM
- GI50 (OVCAR-3 ovarian): 944 nM
- TGI (OVCAR-3 ovarian): 3.1 µM
- GI50 (OVCAR-4 ovarian): 950 nM
- TGI (OVCAR-4 ovarian): > 50 µM
- GI50 (OVCAR-8 ovarian): 1580 nM
- TGI (OVCAR-8 ovarian): > 50 µM
- GI50 (PC-3 prostate): 225 nM
- TGI (PC-3 prostate): > 50 µM
- GI50 (RPMI-8226 leukemia): 345 nM
- TGI (RPMI-8226 leukemia): 2860 nM
- GI50 (RXF 393 renal): 0.263 µM
- TGI (RXF 393 renal): 1570 nM
- GI50 (SF-268 CNS): 1350 nM
- TGI (SF-268 CNS): > 50 µM
- GI50 (SF-295 CNS): 1670 nM
- TGI (SF-295 CNS): > 50 µM
- GI50 (SF-539 CNS): 1260 nM
- TGI (SF-539 CNS): 3.63 µM
- GI50 (SK-MEL-2 melanoma): 1.92 µM
- TGI (SK-MEL-2 melanoma): > 50 µM
- GI50 (SK-MEL-28 melanoma): 1610 nM
- TGI (SK-MEL-28 melanoma): > 50 µM
- GI50 (SK-MEL-5 melanoma): 1510 nM
- TGI (SK-MEL-5 melanoma): > 50 µM
- GI50 (SK-OV-3 ovarian): 3.06 µM
- TGI (SK-OV-3 ovarian): 41.1 µM
- GI50 (SN12C renal): 648 nM
- TGI (SN12C renal): 3.24 µM
- GI50 (SNB-19 CNS): 1400 nM
- TGI (SNB-19 CNS): > 50 µM
- GI50 (SR leukemia): 0.79 µM
- TGI (SR leukemia): > 50 µM
- GI50 (T-47D breast): 1350 nM
- TGI (T-47D breast): > 50 µM
- GI50 (TK-10 renal): 3.14 µM
- TGI (TK-10 renal): > 50 µM
- GI50 (U251 CNS): 1600 nM
- TGI (U251 CNS): > 50 µM
- GI50 (UACC-257 melanoma): 2150 nM
- TGI (UACC-257 melanoma): > 50 µM
- GI50 (UACC-62 melanoma): 1280 nM
- TGI (UACC-62 melanoma): > 50 µM
- GI50 (UO-31 renal): 1110 nM
- TGI (UO-31 renal): > 50 µM

Structure (SMILES): ClCC[N+]12CC[N+](CCCl)(CC1)C2 (tested in a mixture with another compound)
- GI50 (RXF 393 renal): 85.4 µM
- GI50 (SK-MEL-2 melanoma): 43.2 µM
- GI50 (SNB-75 CNS): 58.6 µM

Structure (SMILES): CC(C)(C)c1cc(C#N)cc(Br)c1OP(=O)(Oc1c(Br)cc(C#N)cc1C(C)(C)C)c1ccccc1
- GI50 (SR leukemia): 10.5 µM

Source: PubChem BioAssay (NCI)
